The values that follow come from ChEMBL document CHEMBL1158891, “Chemical and biological investigation of the fungus Pulveroboletus ravenelii” (J Nat Prod, 2003).

For orientation: IC50 means the midpoint of a concentration-inhibition curve. Low readings indicate greater potency in that assay, high ones weaker potency in that assay.

Converted amounts (≈) assume the structure as drawn.

Experiment [1] is described as follows: Inhibition of 7,12-dimethylbenz[a]anthracene-induced preneoplastic lesions in BALB/c mouse mammary gland culture after 1 to 10 days. It is filed as functional, tissue-based.
Experiment [2] addresses T1, Prostaglandin G/H synthase 2 (Homo sapiens, UniProt P35354).
T1 sequence (P35354 whole entry): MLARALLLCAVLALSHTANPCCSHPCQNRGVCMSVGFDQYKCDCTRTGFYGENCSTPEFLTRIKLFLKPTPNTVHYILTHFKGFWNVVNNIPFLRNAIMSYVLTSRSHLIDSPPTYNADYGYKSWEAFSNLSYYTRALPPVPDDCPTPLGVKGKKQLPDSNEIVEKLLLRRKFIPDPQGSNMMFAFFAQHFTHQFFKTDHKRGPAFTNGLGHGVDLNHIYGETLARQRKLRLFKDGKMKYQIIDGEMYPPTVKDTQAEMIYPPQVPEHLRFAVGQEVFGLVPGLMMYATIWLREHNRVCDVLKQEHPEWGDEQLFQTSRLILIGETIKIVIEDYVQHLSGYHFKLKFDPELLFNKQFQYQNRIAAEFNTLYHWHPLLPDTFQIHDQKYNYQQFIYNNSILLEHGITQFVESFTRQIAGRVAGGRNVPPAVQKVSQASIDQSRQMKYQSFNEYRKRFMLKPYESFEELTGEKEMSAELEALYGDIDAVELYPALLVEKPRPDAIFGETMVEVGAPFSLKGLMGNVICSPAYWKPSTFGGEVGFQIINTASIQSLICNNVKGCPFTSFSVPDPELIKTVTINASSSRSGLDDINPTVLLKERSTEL
Nature of the experiment: Inhibition of COX2.

The target in experiment [3] is Prostaglandin G/H synthase 1 (Homo sapiens, UniProt P23219). Nature of the experiment: Inhibition of COX1.
A further experiment relates to Staphylococcus aureus. Put plainly: Antimicrobial activity against Staphylococcus aureus. It is filed as functional, organism-based.

Chain of Prostaglandin G/H synthase 1 (P23219 whole entry): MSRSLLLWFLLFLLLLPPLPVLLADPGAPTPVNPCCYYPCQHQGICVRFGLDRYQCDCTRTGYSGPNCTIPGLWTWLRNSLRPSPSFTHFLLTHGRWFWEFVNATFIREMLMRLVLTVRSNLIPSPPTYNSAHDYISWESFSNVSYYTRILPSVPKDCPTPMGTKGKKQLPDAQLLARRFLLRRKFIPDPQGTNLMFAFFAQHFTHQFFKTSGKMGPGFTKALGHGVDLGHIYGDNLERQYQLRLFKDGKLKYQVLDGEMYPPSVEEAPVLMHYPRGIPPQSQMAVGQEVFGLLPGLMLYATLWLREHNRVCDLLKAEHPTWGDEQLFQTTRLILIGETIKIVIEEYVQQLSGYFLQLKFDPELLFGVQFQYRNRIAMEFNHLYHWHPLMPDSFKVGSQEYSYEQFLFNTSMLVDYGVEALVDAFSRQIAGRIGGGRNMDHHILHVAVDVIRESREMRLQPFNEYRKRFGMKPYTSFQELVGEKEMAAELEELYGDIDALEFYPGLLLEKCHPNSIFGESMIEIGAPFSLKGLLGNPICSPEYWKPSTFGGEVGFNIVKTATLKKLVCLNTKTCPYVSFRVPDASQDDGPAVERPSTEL

In experiment [1], `COC(=O)[C@@H](c1ccccc1)[C@@H](C1=C(O)/C(=C/c2ccccc2)OC1=O)c1ccccc1` [PULVERAVEN A] registered an IC50 of 6 µg/mL (≈ 14.1 µM).

On to `COC(=O)[C@@H](c1ccccc1)[C@H](C1=C(O)/C(=C/c2ccccc2)OC1=O)c1ccccc1` [PULVERAVEN B], for which the results for the IC50 in experiment [2], in experiment [3] and in experiment [1] were greater than 234 µM, greater than 234 µM and 0.8 µg/mL (≈ 1.88 µM), respectively.

Regarding `COC(=O)/C(=C1/OC(=O)C(c2ccccc2)=C1O)c1ccccc1` [VULPINIC ACID], the IC50 was 20 µg/mL (≈ 62.1 µM) in the experiment on Staphylococcus aureus, 676 µM in experiment [3] and greater than 10 µg/mL in experiment [1].
